Test results reported in patent US8653056B2, “Method of preparation of a soluble formulation of water-insoluble pentacyclic and tetracyclic terpenoids, a soluble formulation of a pentacyclic or tetracyclic terpenoid and a pharmaceutical composition containing this soluble formulation” (Univerzita Karlova V Praze, Prirodovedecka Fakulta, priority 2006, dated 2014).

Experiments:
[1] = Concentration of dissolved triterpenoid in the aqueous cyclodextrin solution (HPLC-ESI MS); format: physicochemical; details: 2-hydroxypropyl-γ-cyclodextrin, 50° C.
Experimental: (§1) Into the resulting colourless, viscous solution, soluble triterpene derivative (1.50 g) is added at once and the mixture is again vigorously stirred at the temperature of 50° C. […] After the triterpenoid is completely dissolved, the resulting clear solution is cooled to room temperature, filtered with a syringe filter (hydrophilic, pore size 0.22 μm) in order to be sterile and is placed in a refrigerator.
as §1, with “Method B: In a mixture of water (14.0 ml) and propylene glycol (6.0 ml), 2-hydroxypropyl-γ-cyklodextrin (7.00 g) is dissolved at the temperature of 50° C. under vigorous stirring. Into” for “Into”, “derivate (1.00” for “derivative (1.50”, “and” for “and the mixture”
Analytic Determination of the Concentration of Dissolved Triterpenoids in the Application Form and in Plasma Samples
(§2) HPLC-ESI MS technique was used or the determination of the concentration of dissolved triterpenoids. The samples were measured in one analytical batch with calibration solutions and blind control. The sample for the measurement was prepared from 50 μl of aqueous solution containing the inclusion compound by dilution with methanol to the volume of 10 ml. Subsequently, 10 μl of the sample solution after the first dilution is further diluted to 1 ml by the mobile phase. The blind control was obtained from 50 μl of pre-prepared aqueous solution of 2-hydroxypropyl-γ-cyklodextrin by dilution with methanol to 10 ml. Subsequently, 10 μl of the blind control solution after the first dilution is further diluted to 1 ml by methanol. Stock solutions of standards (concentration 0.2 mg/ml) were prepared by weighing 2.00 mg of analyte to 10 ml graduated flask and dissolution in methanol. The calibration samples were then prepared by dilution of the stock solution with mobile phase (0.4 μg/ml resp. 4 μg/ml).
The concentration was determined by comparison with standard and calculated to the original solution containing the inclusion compound.

[2] = Bioavailability and pharmacokinetic profile at oral administration to laboratory mice; format: in vivo, outbred mice CD-1; details: intragastric single dose 200 μl, soluble cyclodextrin formulation
Experimental: Determination of Bioavailability and Pharmacokinetic Profile at Oral Administration of the Compounds to Laboratory Mice
Soluble cyclodextrin formulations of terpenoid compounds, prepared in accordance with the aforementioned methods A or B, were administered without dilution to outbred mice CD-1 intragastrically (200 μl in a single dose) as aqueous solutions by injection syringe equipped with a gastric tube. Insoluble compounds were administered intragastrically as well (200 μl in a single dose), but in the form of aqueous suspensions in 0.5-1% carboxymethyl cellulose. In time intervals 2, 4, 6, 8, 12 and 24 h, blood was taken from the mice, the blood was centrifuged and the obtained plasma was subsequently analysed by HPLC-ESI MS technique.
as §2
The analysis was carried out at ODS Hypersil 125×2.1 mm, 5 um, SN 0745415X, Thermo EC column, ODS 4.0×3.0 mm precolumn, Phenomenex, mobile phase A—100 mmol/L aqueous solution of ammonium formate, pH is adjusted to 5 by formic acid, B—100 mmol/L methanolic solution of ammonium formate, column temperature: 25° C., linear gradient or isocratic elution, injected volume 30 μl. The concentration was determined by comparison with standard and calculated to the original solution containing the inclusion compound.

[3] = solution method A: water, saturated sodium hydrogencarbonate solution, ethanol

Row | Compound | Conc. of dissolved substance [1, 3] [µg/mL] | oral availability [2] | Conc. of dissolved substance ([1]; solution method B: water, propylene glycol) [µg/mL]
1 | C=C(C)[C@@H]1CC[C@]2(C(=O)OCC)CC[C@]3(C)[C@H](CC[C@@H]4[C@@]5(C)CC[C@H](OC(=O)CCC(=O)O)C(C)(C)[C@@H]5CC[C@]43C)[C@@H]12 [2b] | 45000 | prove oral availability | 
2 | CCOC(=O)[C@@]12CC[C@]3(C)[C@H](CC[C@@H]4[C@@]5(C)CC[C@H](O[C@@H]6O[C@H](CO)[C@@H](O)[C@H](O)[C@H]6O)C(C)(C)[C@@H]5CC[C@]43C)C1=C(C(C)C)C(=O)C2 [4i] |  | prove oral availability | 56000
3 | CC(C)C1=C2[C@H]3CC[C@@H]4[C@@]5(C)CC[C@H](OC(=O)CC(C)(C)C(=O)O)C(C)(C)[C@@H]5CC[C@@]4(C)[C@]3(C)CC[C@@]2(C(=O)O)CC1=O [4t] | 49000 | prove oral availability | 
4 | COC(=O)[C@@]12CC[C@]3(C)[C@H](CC[C@@H]4[C@@]5(C)CC[C@H](OC(=O)CCC(=O)O)C(C)(C)[C@@H]5CC[C@]43C)C1=C(C(C)C)C(=O)C2=O [5a] | 50000 | prove oral availability | 

Second part, the compound after the results:

Row | Conc. of dissolved substance [1, 3] [µg/mL] | oral availability [2] | Conc. of dissolved substance ([1]; solution method B: water, propylene glycol) [µg/mL] | Compound
5 | 51000 | prove oral availability |  | C=C(C)[C@@H]1CC[C@]2(C(=O)OC)CC[C@]3(C)[C@H](CC[C@@H]4[C@@]5(C)CC[C@H](OC(=O)CCCC(=O)O)C(C)(C)[C@@H]5CC[C@]43C)[C@@H]12 [2i]
6 | 55000 | prove oral availability |  | C=C(C=O)[C@@H]1CC[C@]2(C(=O)OCC)CC[C@]3(C)[C@H](CC[C@@H]4[C@@]5(C)CC[C@H](OC(=O)CCC(=O)O)C(C)(C)[C@@H]5CC[C@]43C)[C@@H]12 [3b]
7 | 56000 | prove oral availability |  | C=C(C)[C@@H]1CC[C@]2(C(=O)OCC(=O)O)CC[C@]3(C)[C@H](CC[C@@H]4[C@@]5(C)Cc6nccnc6C(C)(C)[C@@H]5CC[C@]43C)[C@@H]12 [6a]
8 | 37000 | prove oral availability |  | CC1(C)CCC23CCC4(C)C(CCC5C6(C)CC(NC(=O)CCC(=O)O)C(O)C(C)(C)C6CCC54C)C2C1OC3 (stereo not shown) [8a]
